# Results from patent publication US4309559A, “Sulphonamides useful as pesticides” (FBC Limited, priority 1977, dated 1982).
# Read-outs that look alike come from different tables or passages of the source.
# Columns and labels:
# Format in all cases: in vivo
# [1] = test system: potato blight, Phytophthora infestans; conditions: 5 days, controls less than 5%
# [2] = test system: barley powdery mildew Erysiphe graminis; assay: Barley powdery mildew control on barley plants; conditions: 2000 ppm; soil and leaves; 10 days; controls less than 5%
# Peas (Pisum sativum) [3] = assay: Post-emergence foliar spray, herbicidal/growth regulant response, peas; conditions: Lathyrus oleraceus, 168 h, foliar spray 11.2 kg/ha, 7 days, 0=no effect, 100=complete kill, read-out: herbicidal or growth regulant response index
# Procedure: (§1) Seeds of the plant species listed below were sown in anodised aluminium pans, 19 cm long×9.5 cm wide×5 cm deep, containing John Innes I potting compost. They were then watered and placed in a controlled environment room (22° C.; 65-85% relative humidity; 14 hours per day artificial illumination at 13,000 lux). Fourteen days after sowing, the seedlings received a foliar spray of a compound listed below, formulated as a solution in 1:1 by volume aqueous acetone. The concentration of active ingredient and volume of application were adjusted so as to be equivalent to a rate of 11.2 kg/ha in 450 liters per hectare. After seven days growth in the controlled environment room, the plants were visually assessed for any herbicidal or growth regulant response. All differences from the untreated control were scored according to an index where 0=no effect and 100=complete kill.
# (§2) The product of Example 95 was tested according to the procedure of Examples 49-55.
# Mustard (Sinapis alba) [4] = assay: Post-emergence foliar spray, herbicidal/growth regulant response, mustard; conditions: 168 h, foliar spray 11.2 kg/ha, 7 days, 0=no effect, 100=complete kill, read-out: herbicidal or growth regulant response index
# Procedure: as §1, §2
# [5] = test system: Linseed (Linum usitatissimum); assay: Post-emergence foliar spray, herbicidal/growth regulant response, linseed; conditions: 168 h, foliar spray 11.2 kg/ha, 7 days, 0=no effect, 100=complete kill, read-out: herbicidal or growth regulant response index
# Procedure: as §1, §2
# [6] = test system: Ryegrass (Lolium perenne); assay: Post-emergence foliar spray, herbicidal/growth regulant response, ryegrass; conditions: 168 h, foliar spray 11.2 kg/ha, 7 days, 0=no effect, 100=complete kill, read-out: herbicidal or growth regulant response index
# Procedure: as §1, §2
# [7] = test system: Sugarbeet (Beta vulgaris); assay: Post-emergence foliar spray, herbicidal/growth regulant response, sugarbeet; conditions: 168 h, foliar spray 11.2 kg/ha, 7 days, 0=no effect, 100=complete kill, read-out: herbicidal or growth regulant response index
# Procedure: as §1, §2
# Oat (Avena sativa) = assay: Post-emergence foliar spray, herbicidal/growth regulant response, oat; conditions: 168 h, foliar spray 11.2 kg/ha, 7 days, 0=no effect, 100=complete kill, read-out: herbicidal or growth regulant response index
# Procedure: as §1, §2
# Peas (Pisum sativum) [8] = assay: Soil incorporation (attaclay/sand dust), growth regulatory or herbicidal effects, peas; conditions: Lathyrus oleraceus, 504 h, soil incorporation 130 ppm, 21 days, 0=no effect, 100=complete kill/suppression, read-out: growth regulatory or herbicidal effect score
# Text: (§3) The compounds listed below were each formulated as an attaclay/sand dust and incorporated into John Innes I potting compost at a rate equivalent to 26 parts per million weight/volume of active ingredient to soil and placed in anodised aluminium pans, 19 cm long×9.5 cm wide×5.0 cm deep. This rate is approximately equivalent to a soil surface application of 11.2 kg active ingredient/hectare cultivated to a depth of 5 cm. Seeds of the species listed below were sown in the treated soil, watered and placed in a controlled environment room (22° C.; 65-85% relative humidity; 14 hours per day artificial illumination at 13,000 lux) for 21 days. The plants were then visually assessed for any growth regulatory or herbicidal effects. All differences from an untreated control were scored on a scale from 0-100, where 0 signifies no effect and 100 signifies complete kill.
# (§4) The compounds listed below were tested according to the procedure of Examples 56-60 but at 130 parts per million weight/volume of active ingredient to soil. This rate is approximately equivalent to a soil surface application of 56 kg active ingredient per hectare cultivated to a depth of 5 cm.
# (§5) The product of Example 95 was tested according to the procedure of Examples 56-60 but at 130 and 26 parts per million weight/volume. The results were as follows:
# (§6) N-(2-oxopropyl)-2'-chloro-6'-methyl-methanesulphonanilide, formulated as an attaclay/sand dust, was incorporated in John Innes I potting compost at a rate equivalent to 130 parts per million weight/volume of active ingredient to soil and placed in anodised aluminium pans, 19 cm long×9.5 cm wide×5.0 cm deep. These rates are approximately equivalent to a soil surface application of 56 kg active ingredient per hectare cultivated to a depth of 5 cm. Seeds of Peas, Mustard, Linseed, Maize, Oats and Ryegrass were sown in the treated soil, watered and placed in a controlled environment room (22° C.; 65-85% relative humidity; 14 hours artificial illumination at 13000 lux) for 21 days.
# (§7) The plants were then visually assessed for any growth regulatory or herbicidal effects. All differences from an untreated control were scored on a scale from 0-100, where 0 signifies no effect and 100 signifies complete suppression.
# Mustard (Sinapis alba) [9] = assay: Soil incorporation (attaclay/sand dust), growth regulatory or herbicidal effects, mustard; conditions: 504 h, soil incorporation 130 ppm, 21 days, 0=no effect, 100=complete kill/suppression, read-out: growth regulatory or herbicidal effect score
# Text: as §3, §4, §5, §6, §7
# [10] = test system: Linseed (Linum usitatissimum); assay: Soil incorporation (attaclay/sand dust), growth regulatory or herbicidal effects, linseed; conditions: 504 h, soil incorporation 130 ppm, 21 days, 0=no effect, 100=complete kill/suppression, read-out: growth regulatory or herbicidal effect score
# Text: as §3, §4, §5, §6, §7
# Maize (Zea mays) = assay: Soil incorporation (attaclay/sand dust), growth regulatory or herbicidal effects, maize; conditions: 504 h, soil incorporation 130 ppm, 21 days, 0=no effect, 100=complete kill/suppression, read-out: growth regulatory or herbicidal effect score
# Text: as §3, §4, §5, §6, §7
# Oats (Avena sativa) = assay: Soil incorporation (attaclay/sand dust), growth regulatory or herbicidal effects, oats; conditions: 504 h, soil incorporation 130 ppm, 21 days, 0=no effect, 100=complete kill/suppression, read-out: growth regulatory or herbicidal effect score
# Text: as §3, §4, §5, §6, §7
# [11] = test system: Ryegrass (Lolium perenne); assay: Soil incorporation (attaclay/sand dust), growth regulatory or herbicidal effects, ryegrass; conditions: 504 h, soil incorporation 130 ppm, 21 days, 0=no effect, 100=complete kill/suppression, read-out: growth regulatory or herbicidal effect score
# Text: as §3, §4, §5, §6, §7
structure (smiles),measurement,setting,value
"CC(=O)CN(c1c(C)cccc1C)S(C)(=O)=O [Example 211, N-2-oxopropyl-2',6'-dimethyl-methanesulphonanilide]","% Control, potato blight",[1]; 125 ppm,90%
same,"% Control, potato blight",[1]; 500 ppm,94%
same,"% Control, potato blight","[1]; 2,000 ppm",99%
CS(=O)(=O)N(CCCC#N)c1ccc(Cl)c(Cl)c1 [Example 147],"% Control, barley powdery mildew",[2],96%
Cc1cccc(C)c1N(CCCC#N)S(C)(=O)=O [Example 146],"% Control, barley powdery mildew",[2],92%
CCOC(=O)C(C)N(c1ccccc1Cl)S(C)(=O)=O (centres unmarked) [Example 25],pest or weed control at 11200 g/ha,Peas (Pisum sativum) [3],5%
same,pest or weed control at 11200 g/ha,Mustard (Sinapis alba) [4],80%
same,pest or weed control at 11200 g/ha,[5],20%
same,pest or weed control at 11200 g/ha,[6],0%
same,plant injury at 11200 g/ha,[7],30%
same,plant injury at 11200 g/ha,Oat (Avena sativa),20%
same,pest or weed control at 130 µg/mL,Peas (Pisum sativum) [8],5%
same,pest or weed control at 130 µg/mL,Mustard (Sinapis alba) [9],100%
same,pest or weed control at 130 µg/mL,[10],50%
same,plant injury at 130 µg/mL,Maize (Zea mays),40%
same,plant injury at 130 µg/mL,Oats (Avena sativa),20%
same,pest or weed control at 130 µg/mL,[11],0%
"COC(C)(CN(c1c(C)cccc1C)S(C)(=O)=O)OC [Example 224, N-(2,2-dimethoxypropyl)-2',6'-dimethyl-methanesulphonanilide]","% Control, potato blight",[1]; 500 ppm,55%
same,"% Control, potato blight","[1]; 2,000 ppm",98%
"Cc1cccc(C)c1N(CC1(C)OCCO1)S(C)(=O)=O [Example 231, N-[(2-methyl-1,3-dioxolan-2-yl)methyl]-2',6'-dimethylmethanesulphonanilide]","% Control, potato blight","[1]; 2,000 ppm",98%
